In one data set the target is T1, cruzain (Trypanosoma cruzi, UniProt P25779).
T1 construct: inferred from Ni-NTA purification of the pro-enzyme; made in house; host or cells: Escherichia coli (M15)
In words: Cruzain inhibition assay (cleavage of fluorogenic substrate Z-Phe-Arg-AMC). It counts as biochemical. The settings on record: for inhibition at 100 µM: at 100 μM inhibitor, mean of three measurements, read-out: Percent inhibition against cruzain. Here is the method: The catalytic activity of cruzain was monitored by cleavage of the fluorogenic substrate Z-Phe-Arg-aminomethyl coumarin (Z-Phe-Arg-AMC) as previously described (Ferreira et al., [2014]). The enzyme kinetics assays were performed in 0.1 M sodium acetate buffer (pH 5.5) with 5 mM dithiothreitol (DTT) and 0.01% Triton X-100. […] The enzyme reaction was monitored for 5 min at 30°C in 96-well black flat bottom plates, and the activity was calculated based on the initial rates compared with a control (DMSO). Wavelengths of 355 nm for excitation and 460 nm for emission were used. IC50 values were independently determined by determining rate measurements for at least six inhibitor concentrations, each evaluated in triplicate. To determine the mechanism of inhibition, eight substrate concentrations and four inhibitor concentrations were used, each in triplicate. The mechanism of inhibition was determined by Lineweaver-Burk plots. SigmaPlot 10.0 (Systat Software Inc., Erkrath, Germany) was used to determine the IC50 values.

Data set [1] deals with T. cruzi intracellular amastigotes. In words: T. cruzi intracellular amastigote assay (Tulahuen lacZ strain, CPRG readout). It counts as cell-based, Trypanosoma cruzi. The following applies: intracellular amastigotes; for IC50: Trypanosoma cruzi, Tulahuen strain in HFF-1 fibroblasts, 120 h, mean ± SD of two experiments, read-out: IC50 T. cruzi. Here is the method: In vitro assays against T. cruzi were performed as described previously (Ferreira et al., [2014]). The T. cruzi Tulahuen strain, which expresses the E. coli β-galactosidase gene lacZ (Buckner et al., [1996]), was provided by Frederick S. Buckner (University of Washington, Seattle, WA). Stock solutions of the synthesized compounds were prepared in 100% DMSO. Epimastigotes were grown in liver infusion tryptone (LIT) supplemented with 10% fetal calf serum (FCS), penicillin and streptomycin (28°C). Metacyclogenesis from epimastigotes to trypomastigotes was induced by incubation of the epimastigotes in Grace's insect medium (Sigma-Aldrich, St. Louis, MO) supplemented with 10% FCS (28°C). HFF-1 human fibroblasts were seeded at 2 × 10^3/well (80 μL) in 96-well tissue culture plates in RPMI 1640 without phenol red supplemented with 10% FCS and incubated overnight (37°C, 5% CO2). Next, trypomastigotes were added at 1.0 × 10^4/well (20 μL), and the plates were incubated (37°C, 5% CO2). After 24 h, 3-fold serial dilutions (50 μL) of the synthesized compounds were added at concentrations ranging from 0.1 to 100 μM, and the plates were incubated (37°C, 5% CO2). Each compound concentration was evaluated in triplicate. All plates included BZ (Sigma-Aldrich) as a positive control and untreated wells (100% growth) as a negative control. After 120 h, 50 μL of chlorophenol red β-D-galactopyranoside (CPRG, Sigma-Aldrich) and IGEPAL CA-630 (Sigma-Aldrich) (0.1%) was added to each well. The absorbance was measured at 570 nm in an automated microplate reader, and the data were transferred to SigmaPlot 10.0 (Systat Software Inc.) for IC50 value calculation.

The nature of data set [2]: Cytotoxicity in HFF-1 cells (MTS tetrazolium assay). It counts as cell-based. The settings on record: human, HFF-1 fibroblasts, mean ± SD of two independent assays. Here is the method: (§1) The cytotoxicities of the compounds against HFF-1 fibroblasts and HepG2 hepatocytes were evaluated using the MTS tetrazolium assay (Promega, Madison, WI) (Barltrop et al., [1991]). HFF-1 fibroblasts were seeded at 2 × 10^3/well in 96-well culture plates in RPMI 1640 without phenol red supplemented with 10% FCS and incubated overnight (37°C, 5% CO2). HepG2 hepatocytes were seeded at 6 × 10^3/well in 96-well culture plates in DMEM (Cultilab, Campinas SP) supplemented with 10% FCS and incubated overnight (37°C, 5% CO2). The compounds were added in 3-fold serial dilutions, and the plates were incubated at 37°C with 5% CO2. Each compound concentration was evaluated in triplicate. All plates included doxorubicin (Sigma-Aldrich, St. Louis, MO) as a positive control and untreated wells (100% growth) as a negative control. After 72 h, 20 μL of MTS was added, and the plates were incubated for 4 h. The absorbance was measured at 490 nm in an automated microplate reader, and the data were transferred to SigmaPlot 10.0 (Systat Software Inc., Erkrath, Germany) for IC50 value calculation. The percent of nonviable cells was determined and compared to the negative control wells (100% growth).
In general terms: Tetrazolium assays rely on reduction of a dye to a coloured formazan, in cell work by metabolically active cells.

Data set [3] in a line: Cytotoxicity in HepG2 cells (MTS tetrazolium assay). It counts as cell-based. The settings on record: human, HepG2 hepatocytes, mean ± SD of two independent assays. The method, then: as §1

T1 sequence (P25779 123-337 limits assumed): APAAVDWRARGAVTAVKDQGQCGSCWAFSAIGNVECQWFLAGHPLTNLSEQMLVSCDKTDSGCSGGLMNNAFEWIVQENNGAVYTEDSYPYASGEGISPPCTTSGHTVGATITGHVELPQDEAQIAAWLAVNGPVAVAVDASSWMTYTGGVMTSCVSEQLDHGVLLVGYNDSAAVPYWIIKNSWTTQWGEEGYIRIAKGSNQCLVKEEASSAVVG

Consider `COc1ccc(NC(=O)COC(=O)[C@H](CC(C)C)N2CCNCC2)cc1Cl.Cl` [10o, 2-((3-chloro-4-methoxyphenyl)amino)-2-oxoethyl (S)-4-methyl-2-(piperazin-1-yl)pentanoate hydrochloride], for which, on cruzain, the inhibition – broadly, the drop in the measured response relative to a control, in per cent – at 100 µM was found to be 35%. In addition, in data set [1], the IC50 – broadly, the concentration needed to halve the response being measured – was 1.7 ± 0.5 µM and the “activity against T. cruzi (in words)” value was “remarkably active”. For the same molecule, it took 32 ± 3 µM to reach half-maximal cytotoxicity in data set [2] (CC50 at 72 h). Further, in data set [3], half-maximal cytotoxicity (CC50 at 72 h) was put at 52 ± 7 µM.
Take `COc1ccc(NC(=O)COC(=O)[C@H](CC(C)C)N2CCOCC2)cc1Cl` [10m, 2-((3-chloro-4-methoxyphenyl)amino)-2-oxoethyl (S)-4-methyl-2-morpholinopentanoate]: the inhibition at 100 µM at cruzain came out at 14%. In data set [1], the IC50 is 1.8 ± 0.4 µM and the “activity against T. cruzi (in words)” value is “remarkably active”. The CC50 (usually the concentration at which the toxic effect on the cells reaches its halfway point) at 72 h in data set [2] is more than 100 µM. Moreover, the half-maximal cytotoxic concentration (CC50) at 72 h in data set [3] was more than 64 µM.
For the molecule `COc1ccc(NC(=O)COC(=O)[C@H](CC(C)C)N2C(=O)C=CC2=O)cc1Cl` [10c, 2-((3-chloro-4-methoxyphenyl)amino)-2-oxoethyl (S)-2-(2,5-dioxo-2,5-dihydro-1H-pyrrol-1-yl)-4-methylpentanoate], the inhibition at 100 µM at cruzain worked out at 95%. For the same molecule, the concentration for half-maximal inhibition (IC50) against cruzain (mean ± SD of three individual experiments, at least six inhibitor concentrations in triplicate, 1.5 nM cruzain, 5.0 μM Z-Phe-Arg-AMC, pH 5.5) is 2.3 ± 1 µM; in data set [1], 0.9 ± 0.3 µM. In addition, the CC50 at 72 h in data set [2] is 12 ± 1 µM; in data set [3], 33 ± 5 µM.
`CC(C)CC(C(=O)OCC(=O)Nc1ccc(N(C)C(=O)OC(C)(C)C)cc1)N1C(=O)C2CC=CCC2C1=O` (stereo not drawn) [3k]: the inhibition at 100 µM on cruzain was 7%. Further, the concentration for half-maximal inhibition (IC50) in data set [1] came to 3.9 ± 0.9 µM. Also, the CC50 at 72 h in data set [2] is more than 100 µM; in data set [3], more than 64 µM.
In the case of `COc1cccc2c1C(=O)c1c(O)c3c(c(O)c1C2=O)C[C@@](O)(C(=O)CO)C[C@@H]3O[C@H]1C[C@H](N)[C@H](O)[C@H](C)O1` [Doxorubicin, doxorubicin, reference compound], the CC50 at 72 h in data set [2] amounted to 0.21 ± 0.09 µM; in data set [3], 0.4 ± 0.1 µM.
As to `COc1ccc(NC(=O)COC(=O)[C@H](CC(C)C)N2C(=O)C(Cl)=C(Cl)C2=O)cc1Cl` [10f, 2-((3-chloro-4-methoxyphenyl)amino)-2-oxoethyl (S)-2-(3,4-dichloro-2,5-dioxo-2,5-dihydro-1H-pyrrol-1-yl)-4-methylpentanoate], the “increase in potency against cruzain” value on cruzain (10f compared with 10c/10e) stood at 6 fold. For the same molecule, the inhibition at 100 µM on cruzain is 100%. In addition, the IC50 in data set [1] was 2 ± 0.7 µM. In addition, the values for the CC50 at 72 h in data set [2] and in data set [3] were 33 ± 9 µM and more than 64 µM, respectively.
`COc1ccc(NCCOC(=O)C(CC(C)C)N2C(=O)C3CC=CCC3C2=O)cc1Cl` (stereo not drawn) [compound 7, 2-((3-chloro-4-methoxyphenyl)amino)ethyl 2-(1,3-dioxo-1,3,3a,4,7,7a-hexahydro-2H-isoindol-2-yl)-4-methylpentanoate]: at cruzain, the “activity against cruzain (in words)” value was “inactive” and the inhibition at 100 µM is 11%. In data set [1], the IC50 was determined as 1.5 ± 0.4 µM and the “activity against T. cruzi (in words)” value was “active”. In addition, in data set [2], the CC50 at 72 h was more than 100 µM. This molecule also came in with a CC50 at 72 h in data set [3] of 63 ± 8 µM.
In the case of `COc1ccc(NC(=O)COC(=O)[C@H](CC(C)C)N2CCN(C(=O)OC(C)(C)C)CC2)cc1Cl` [10n, tert-butyl (S)-4-(1-(2-((3-chloro-4-methoxyphenyl)amino)-2-oxoethoxy)-4-methyl-1-oxopentan-2-yl)piperazine-1-carboxylate], the inhibition at 100 µM on cruzain came out at 8%. Further, in data set [1], the IC50 came out at 1.6 ± 0.5 µM and the “activity against T. cruzi (in words)” value is on record as “remarkably active”. Further, it took 32 ± 5 µM to reach half-maximal cytotoxicity in data set [2] (CC50 at 72 h). Further, the CC50 at 72 h in data set [3] is 27 ± 2 µM.
For `COc1ccc(NC(=O)COC(=O)[C@H](CC(C)C)N2CCCCC2)cc1Cl` [10l, 2-((3-chloro-4-methoxyphenyl)amino)-2-oxoethyl (S)-4-methyl-2-(piperidin-1-yl)pentanoate] the same measures were 10%, 11.6 ± 2.4 µM, “moderately active”, more than 100 µM and more than 64 µM.

(Values after article PMC6886403, “Structure-Based and Molecular Modeling Studies for the Discovery of Cyclic Imides as Reversible Cruzain Inhibitors With Potent Anti-Trypanosoma cruzi Activity” (Frontiers in Chemistry, 2019).)
